The assay concerns hair growth of flank organs. As to the kind of experiment: hamster flank organ hair mass assay (reduction of hair growth). In kind it is in vivo, Male intact Golden Syrian hamsters. The conditions noted are these: for reducing hair growth (result in words): vehicle and test not given. How it is done:
These organs produce hair in response to androgens in the hamster. To evaluate the effectiveness of a particular inhibitor in reducing hair growth, the flank organs of each of a group of hamsters are depilated by applying a thioglycolate based chemical depilatory (Surgex). To one organ of each animal 10 μl. of vehicle alone once a day is applied, while to the other organ of each animal an equal amount of vehicle containing the inhibitor is applied. After thirteen applications (one application per day for five days a week), the flank organs are shaved and the amount of recovered hair (hair mass) from each is weighed. […] Some preferred inhibitors were tested according to the above procedure.

[1] abbreviates: Table 3: 5% in Vehicle A, pH 7.5.
The mark [2] stands for this setting: Table 3: 10% in Vehicle A, pH 7.5.
Setting [3] is: Table 3: 10% in Vehicle F, pH 5.5.
[4] abbreviates: Table 3: 15% in Vehicle A, pH 7.5.
Where [5] appears, read: Table 3: 20% in Vehicle A, pH 8.0.
The mark [6] stands for this setting: Table 3: 20% in Vehicle B, pH 7.0.
Where [7] appears, read: Table 3: 20% in Vehicle F, pH 5.5.

Turning to `Cc1c(C)c2c(c(C)c1O)CCC(C)(CCCC(C)CCCC(C)CCCC(C)C)O2` (racemic) [dl-α-tocopherol], the “reducing hair growth (result in words)” value is reported as “effective in reducing hair growth”.
For `O=C(O)C=Cc1ccc(O)c(O)c1` [Caffeic acid, 3,4-dihydroxycinnamic acid], the “reducing hair growth (result in words)” value was “effective in reducing hair growth”. In addition, where the note is “Dose 15%, Vehicle H, pH 4.0, thirteen applications”, the “Hair Mass Treated” value is 0.797 ± .13 mg. Besides, under “Dose 15%, Vehicle H, pH 4.0, vs vehicle treated side”, the “Percent Inhibition” value is on record as 62 ± 7%.
As to `CC(C(=O)O)c1ccc2c(c1)[nH]c1ccc(Cl)cc12` (stereo not drawn) [Carprofen, 6-chloro-α-methylcarbazole-2-acetic acid], the “Hair Mass Treated” value (Dose 20%, Vehicle C, pH 6.0, thirteen applications) was 0.776 ± .11 mg. Also, under “Dose 20%, Vehicle C, pH 6.0, vs vehicle treated side”, the “Percent Inhibition” value is recorded as 29.69%.
`COc1ccc2c(c1)c(CC(=O)O)c(C)n2C(=O)c1ccc(Cl)cc1` [Indomethacin, 1-[p-chlorobenzoyl]-5-methoxy-2-methylindole-3-acetic acid]: the “Hair Mass Treated” value is 1.248 ± .20 mg under setting [1]; 1.084 ± .11 mg under setting [2]; 0.679 ± .08 mg under setting [3]; 0.768 ± .10 mg under setting [4]; 0.307 ± .08 mg under setting [5]; 0.261 ± .01 mg under setting [6]. The “Hair Mass Treated” value under setting [7] is recorded as 0.324 ± .08 mg. Further, the “Percent Inhibition” value under setting [1] is recorded as 43.41 ± 7.75%; the “Percent Inhibition” value under setting [2] is given as 53.32 ± 4.17%; the “Percent Inhibition” value under setting [3] was determined as 49.89 ± 5.54%; the “Percent Inhibition” value under setting [4] is on record as 68.77 ± 3.02%; the “Percent Inhibition” value under setting [5] was 83.78 ± 3.66%; the “Percent Inhibition” value under setting [6] is 83.37 ± 1.46%. Under setting [7], the “Percent Inhibition” value was found to be 78.43 ± 4.39%.
`Cc1cccc(Nc2ccccc2C(=O)O)c1C` [Mefenamic acid, 2-[(2,3-dimethylphenyl)amino]benzoic acid]: the “Hair Mass Treated” value (Dose 10%, Vehicle A, pH 8.8, thirteen applications) was 0.518 ± .13 mg. Where the note is “Dose 10%, Vehicle A, pH 8.8, vs vehicle treated side”, the “Percent Inhibition” value is on record as 67.18%.
For `CC(Cc1ccc(O)c(O)c1)C(C)Cc1ccc(O)c(O)c1` (stereo not drawn) [NDGA, nordihydroguaiaretic acid], the “reducing hair growth (result in words)” value is recorded as “effective in reducing hair growth”. For the same molecule, the “Hair Mass Treated” value (Dose 10%, Vehicle B, pH 6.5, thirteen applications) is on record as 0.450 ± .11 mg. In addition, the “Percent Inhibition” value (Dose 10%, Vehicle B, pH 6.5, vs vehicle treated side) is reported as 81 ± 4%.
As to `COc1ccc2cc(CCC(C)=O)ccc2c1` [Nabumetone, 4-[6-methoxy-2-naphthyl]-2-butanone], the “Hair Mass Treated” value (Dose 15%, Vehicle E, pH 6.0, thirteen applications) is on record as 1.267 ± .23 mg. The “Percent Inhibition” value (Dose 15%, Vehicle E, pH 6.0, vs vehicle treated side) worked out at 23.23%.
With `CCCOC(=O)c1cc(O)c(O)c(O)c1` [Propyl gallate, propyl gallate], the “reducing hair growth (result in words)” value is “effective in reducing hair growth”.
As to `O=c1c(O)c(-c2ccc(O)c(O)c2)oc2cc(O)cc(O)c12` [Quercetin, 3,3′,4′,5,7-pentahydroxy flavone], the “reducing hair growth (result in words)” value is on record as “effective in reducing hair growth”. Besides, the “Hair Mass Treated” value (Dose 5%, Vehicle G, pH 6.0, thirteen applications) is given as 1.100 ± .10 mg. Moreover, the “Percent Inhibition” value (Dose 5%, Vehicle G, pH 6.0, vs vehicle treated side) came to 27 ± 6%. In addition, the “Hair Mass Treated” value (Dose 10%, Vehicle E, pH 5.5, thirteen applications) is on record as 0.419 ± .07 mg. Also, the “Percent Inhibition” value (Dose 10%, Vehicle E, pH 5.5, vs vehicle treated side) is 83 ± 4%.
With `CN1C(C(=O)Nc2ccccn2)=C(O)c2sccc2S1(=O)=O` [Tenoxican, 4-hydroxy-2-methyl-N-2-pyridinyl-2H-thieno[2,3-e]-1,2-thiazine-3-carboxamide-1,1-dioxide], the “Hair Mass Treated” value (Dose 15%, Vehicle B, pH 8.0, thirteen applications) is listed as 0.326 ± .08 mg. In addition, the “Percent Inhibition” value (Dose 15%, Vehicle B, pH 8.0, vs vehicle treated side) came to 85.38%.
For the molecule `O=c1cc(-c2ccc(O)cc2)oc2cc(O)cc(O)c12` [apigenin, 4′,5,7-trihydroxy flavone], the “reducing hair growth (result in words)” value is “effective in reducing hair growth”.

The record behind these values is patent US6414017B2, “Inhibition of hair growth” (The Gillette Company, priority 1993, dated 2002).
